One may read the IC50 as the concentration at which inhibition is half-maximal. Lower therefore signals inhibition by little substance. As a reminder, the Kp is tissue or fluid exposure divided by exposure in the circulation. A word on the efflux ratio: it is a quotient of directional permeabilities that is used to spot active efflux.

The record followed here is patent US9284324B2, “Phenylpyrrole derivative” (TAISHO PHARMACEUTICAL CO., LTD, priority 2011, dated 2016).

Where “and” joins values, the source holds several entries; their conditions need not be identical. Equal values may be shown once. Bounds are passed on as bounds.

One data set concerns the target T1, H3 receptor (Rattus norvegicus, UniProt Q9QYN8).
T1 construct: The frontal cortex dissected from rats was homogenized; from tissue; host or cells: rat frontal cortex membrane fraction
Briefly: Rat H3 receptor binding test (N-α-methyl[3H]histamine). To be noted: rat frontal cortex membrane fraction, N-α-methyl[3H]histamine 0.75 nM. As for the experimental part: (Test 1: Rat H3 Receptor Binding Test)
The frontal cortex dissected from rats was homogenized with a Teflon homogenizer in a 50 mM Tris-HCl buffer solution (pH 7.4) containing a protease inhibitor (Complete EDTA-free; Roche Diagnostics) and 5 mM EDTA. The homogenate was centrifuged at 48,000×g for 15 minutes. The supernatant was removed and the pellet was suspended in a 50 mM Tris-HCl buffer solution (pH 7.4) containing 5 mM EDTA and centrifuged at 48,000×g for 15 minutes. The supernatant was removed and the pellet was suspended in a 50 mM Tris-HCl buffer solution (pH 7.4) containing 5 mM EDTA to give a membrane fraction. The membrane fraction (the protein content in the final reaction mixture: 75 μg), N-α-methyl[^3H]histamine (PerkinElmer; final concentration: 0.75 nM) and a test drug were mixed and subjected to reaction at room temperature for an hour. After the end of the reaction, the reaction mixture was suction filtered through a 96-well GF/C filter plate pretreated with 0.3% polyethyleneimine; the filters were then washed five times with a 50 mM Tris-HCl buffer solution (pH 7.4) containing 5 mM EDTA. After the washing, the filters were dried and a scintillator was added to measure the residual radioactivity on the filter with TopCount (PerkinElmer).
The residual radioactivity in the presence of 10 μM thioperamide was taken as indicative of nonspecific binding and the difference from the residual radioactivity in the absence of thioperamide was taken as indicative of specific binding. Each of the test drugs was dissolved and diluted in DMSO at varying concentrations to plot a dose-response curve from the corresponding residual radio activities; the concentration of test drug that inhibited the specific binding by 50% (IC50) was determined from this curve.

Another data set deals with T2, histamine H3 receptor (Rattus norvegicus, UniProt Q9QYN8).
T2 construct: The frontal cortex dissected from rats was homogenized; from tissue; host or cells: rat frontal cortex membrane fraction
T2 sequence (Q9QYN8 whole entry): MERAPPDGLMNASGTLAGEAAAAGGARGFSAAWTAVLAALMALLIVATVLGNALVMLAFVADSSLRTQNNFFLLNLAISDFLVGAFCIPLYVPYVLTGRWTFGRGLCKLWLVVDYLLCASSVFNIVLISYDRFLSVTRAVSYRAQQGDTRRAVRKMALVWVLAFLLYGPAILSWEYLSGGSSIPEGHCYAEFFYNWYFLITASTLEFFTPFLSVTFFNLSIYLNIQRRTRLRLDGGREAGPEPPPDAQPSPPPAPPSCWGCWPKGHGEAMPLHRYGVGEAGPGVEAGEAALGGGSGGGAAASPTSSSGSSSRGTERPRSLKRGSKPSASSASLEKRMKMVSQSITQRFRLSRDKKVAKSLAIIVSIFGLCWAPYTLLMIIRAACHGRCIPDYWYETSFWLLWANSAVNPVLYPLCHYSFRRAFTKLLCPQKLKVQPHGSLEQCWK
The data set is described as follows: [35S]GTP-γ-S binding test. It is filed as biochemical. To be noted: rat frontal cortex membrane fraction, R(−)-α-methyl histamine 300 nM, [35S]GTP-γ-S 0.3 nM. As to the method:
(Test 2: [^35S]GTP-γ-S Binding Test)
The frontal cortex dissected from rats was homogenized with a Teflon homogenizer in a 30 mM Tris-HCl buffer solution (pH 7.4) containing 2.5 mM calcium chloride dihydrate. The homogenate was centrifuged at 48,000×g for 15 minutes. The supernatant was removed and the pellet was suspended in a 30 mM Tris-HCl buffer solution (pH 7.4) containing 2.5 mM calcium chloride dihydrate and centrifuged at 48,000×g for 15 minutes. The supernatant was removed and the pellet was suspended in a 30 mM Tris-HCl buffer solution (pH 7.4) containing 2.5 mM calcium chloride dihydrate and after incubation at 37° C. for 30 minutes, the suspension was centrifuged at 48,000×g for 15 minutes. The resulting supernatant was removed and the pellet was suspended in a 20 mM HEPES buffer solution (pH 7.4) containing 100 mM sodium chloride and 10 mM magnesium chloride to give a membrane fraction. […] After the washing, the filters were dried and a scintillator was added to measure the residual radioactivity on the filter with TopCount (PerkinElmer).
The residual radioactivity in the absence of R(−)-α-methyl histamine was taken as indicative of nonspecific binding and the difference from the residual radioactivity in the presence of R(−)-α-methyl histamine was taken as indicative of specific binding. […]

Data set [1] can be described thus: Rat in vivo pharmacokinetic study. Details: species or system SD rats. The conditions noted are these: for concentration at 1 h / Kp at 1 h: SD, rat, in vivo, po, 3 mg/kg. As for the experimental part: (Test 3: Rat In Vivo Pharmacokinetic Study)
SD rats were given a single oral administration of Compound No. 3, 4 or 7 at a dose of 3 mg/kg and an hour after the administration, the compound's distribution among the plasma, brain, and cerebrospinal fluid was checked. Quantification was effected by a high-performance chromatography/tandem mass spectrometer API 4000 (LC-MS/MS; AB Sciex). As it turned out, Compound Nos. 3, 4 and 7 had good brain/plasma movement ratios of 4.5, 2.9 and 2.2, respectively, with the corresponding intracerebral concentrations of 78.2 ng/g, 7.06 ng/g and 408 ng/g.

Data set [2] concerns the target T3, P-glycoprotein (Human MDR1) (Homo sapiens, UniProt P08183).
T3 construct: expressed in transfected cells; host or cells: LLC-GA5-COL300 (derived from pig kidney LLC-PK1)
Briefly: P-glycoprotein substrate recognition test. It is filed as in vitro ADME. To be noted: ratio of apical→basal and basal→apical membrane permeation coefficients; for efflux ratio at 10 μM: human, LLC-PK1, LLC-GA5-COL300 cells on transwell. As for the experimental part: (Test 4: P-Glycoprotein Substrate Recognition Test)
LLC-GA5-COL300 cells (Human MDR1 expressing system derived from pig kidney derived, cultured renal epithelial cell line LLC-PK1) were cultured on a transwell. Immediately before the test, the culture medium was replaced by Hank's balanced salt solution (HBSS) and the test was then conducted. A solution of an assay compound adjusted to a final concentration of 10 μM was added to the donor side of LLC-GA5-COL300 cells and after the passage of a predetermined period of time, a specified quantity of […] was sampled from the acceptor side. The concentration of the assay compound in the sample was measured by LC-MS/MS. From the amounts of the compound that accumulated and passed into the acceptor side, membrane permeation coefficients (×10^−6 cm/sec) were calculated for apical→basal and basal→apical directions and their relative ratio (efflux ratio) was determined to evaluate the P-glycoprotein substrate recognition.

Setting [3] is: cerebrospinal fluid/plasma movement ratio.
Where [4] appears, read: SD rats, single oral 3 mg/kg, an hour after administration.

T1 sequence (Q9QYN8 whole entry): as above
T3 sequence (P08183 whole entry): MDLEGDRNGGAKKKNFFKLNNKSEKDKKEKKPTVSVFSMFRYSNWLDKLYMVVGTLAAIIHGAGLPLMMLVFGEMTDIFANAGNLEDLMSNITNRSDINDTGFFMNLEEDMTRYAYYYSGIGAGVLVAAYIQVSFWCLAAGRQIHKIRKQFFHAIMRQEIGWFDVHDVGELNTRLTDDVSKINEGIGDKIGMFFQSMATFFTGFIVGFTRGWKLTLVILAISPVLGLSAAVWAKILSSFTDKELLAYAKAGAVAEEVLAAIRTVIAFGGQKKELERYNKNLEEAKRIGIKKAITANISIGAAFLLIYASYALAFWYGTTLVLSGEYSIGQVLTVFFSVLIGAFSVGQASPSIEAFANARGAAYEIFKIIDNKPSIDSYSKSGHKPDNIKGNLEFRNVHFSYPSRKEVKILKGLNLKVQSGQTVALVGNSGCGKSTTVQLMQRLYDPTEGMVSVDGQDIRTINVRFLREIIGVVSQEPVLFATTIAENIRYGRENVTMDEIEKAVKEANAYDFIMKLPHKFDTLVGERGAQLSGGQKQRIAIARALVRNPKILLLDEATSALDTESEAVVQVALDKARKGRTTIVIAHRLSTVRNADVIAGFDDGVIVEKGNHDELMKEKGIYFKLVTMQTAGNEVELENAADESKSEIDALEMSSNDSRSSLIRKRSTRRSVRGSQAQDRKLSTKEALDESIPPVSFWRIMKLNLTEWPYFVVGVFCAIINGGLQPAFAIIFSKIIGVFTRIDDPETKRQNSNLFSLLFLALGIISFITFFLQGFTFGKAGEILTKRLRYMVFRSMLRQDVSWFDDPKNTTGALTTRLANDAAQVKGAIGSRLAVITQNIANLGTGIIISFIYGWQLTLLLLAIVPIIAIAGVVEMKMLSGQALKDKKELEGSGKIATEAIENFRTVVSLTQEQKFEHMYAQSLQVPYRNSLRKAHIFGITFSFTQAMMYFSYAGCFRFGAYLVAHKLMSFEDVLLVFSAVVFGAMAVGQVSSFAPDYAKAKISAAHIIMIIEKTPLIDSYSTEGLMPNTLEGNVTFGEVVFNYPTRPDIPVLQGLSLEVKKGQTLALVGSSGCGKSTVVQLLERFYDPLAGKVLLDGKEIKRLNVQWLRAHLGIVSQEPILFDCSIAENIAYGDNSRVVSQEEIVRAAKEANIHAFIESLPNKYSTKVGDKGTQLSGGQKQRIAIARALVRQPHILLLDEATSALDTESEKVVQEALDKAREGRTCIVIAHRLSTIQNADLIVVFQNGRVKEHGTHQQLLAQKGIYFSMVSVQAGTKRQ

For `Cc1cc(C(=O)N2CCCC2)c(C)n1-c1ccc(OC2CCN(C3CCC3)CC2)cc1` [Compound No. 15, (1-{4-[(1-cyclobutylpiperidin-4-yl)oxy]phenyl}-2,5-dimethyl-1H-pyrrol-3-yl)(pyrrolidin-1-yl)methanone], the IC50 at H3 receptor stood at 6.6 nM. This counts as single-digit nanomolar.
With `O=C(c1ccn(-c2ccc(OC3CCN(C4CCC4)CC3)cc2)c1)N1CCC1` [Compound No. 3, azetidin-1-yl (1-{4-[(1-cyclobutylpiperidin-4-yl)oxy]phenyl}-1H-pyrrol-3-yl)methanone], the results for the IC50 at H3 receptor and at histamine H3 receptor were 1.7 nM and at most 100 nM, respectively. The concentration at 1 h in data set [1] is 78.2 ng/g and 5.75 ng/mL. The Kp at 1 h in data set [1] (brain/plasma movement ratio) turned out to be 4.5; in data set [1] (setting [3]), 0.3. Moreover, in data set [2], the efflux ratio at 10 μM was determined as 1.4.
Turning to `O=C(O)c1ccn(-c2ccc(OC3CCN(C4CCC4)CC3)cc2)c1` [Compound No. 2, 1-{4-[(1-cyclobutylpiperidin-4-yl)oxy]phenyl}-1H-pyrrole-3-carboxylic acid], the concentration for half-maximal inhibition (IC50) on H3 receptor was found to be 34 nM.
Regarding `O=C(c1ccn(-c2ccc(OC3CCN(C4CCC4)CC3)cc2)c1)N1CC2(COC2)C1` [compound 11, (1-{4-[(1-cyclobutylpiperidin-4-yl)oxy]phenyl}-1H-pyrrol-3-yl)(2-oxa-6-azaspiro[3.3]hepta-6-yl)methanone], the half-inhibitory concentration (IC50) on H3 receptor was determined as 1 nM.
Turning to `O=C(c1ccn(-c2ccc(OC3CCN(C4CCC4)CC3)cc2)c1)N1CCOCC1` [compound 9, (1-{4-[(1-cyclobutylpiperidin-4-yl)oxy]phenyl}-1H-pyrrol-3-yl)(morpholin-4-yl)methanone], at H3 receptor, the concentration for half-maximal inhibition (IC50) came to 2.5 nM. Further, in data set [2], the efflux ratio at 10 μM stood at 1.6.
`NC(=O)c1ccn(-c2ccc(OC3CCN(C4CCC4)CC3)cc2)c1` [compound 8, 1-{4-[(1-cyclobutylpiperidin-4-yl)oxy]phenyl}-1H-pyrrole-3-carboxamide] registered a concentration for half-maximal inhibition (IC50) at H3 receptor of 9.5 nM. The efflux ratio at 10 μM in data set [2] stood at 1.6.
Turning to `C[C@@H]1CN(C(=O)c2ccn(-c3ccc(OC4CCN(C5CCC5)CC4)cc3)c2)C[C@H](C)O1` [compound 10], the half-inhibitory concentration (IC50) at H3 receptor came to 6.8 nM.
Turning to `CNC(=O)c1ccn(-c2ccc(OC3CCN(C(C)C)CC3)cc2)c1` [Compound No. 18, 1-{4-[(1-isopropylpiperidin-4-yl)oxy]phenyl}-N-methyl-1H-pyrrole-3-carboxamide], the IC50 on H3 receptor stood at 38 nM. Against the preceding molecule, the IC50 is about 5.6-fold higher.
On to `CN(C)C(=O)c1ccn(-c2ccc(OC3CCN(C4CCC4)CC3)cc2)c1` [compound 6], for which, on H3 receptor, the concentration for half-maximal inhibition (IC50) is 3.2 nM. In data set [2], the efflux ratio at 10 μM was 1.2.
On to `O=C(NC1CCC1)c1ccn(-c2ccc(OC3CCN(C4CCC4)CC3)cc2)c1` [compound 13, N-cyclobutyl-1-{4-[(1-cyclobutylpiperidin-4-yl)oxy]phenyl}-1H-pyrrole-3-carboxamide], for which the IC50 at H3 receptor was 3.7 nM.
On the same count and under the same terms, to `CNC(=O)c1ccn(-c2ccc(OC3CCN(C(C)(C)C)CC3)cc2)c1` [Compound No. 20, 1-{4-[(1-tert-butylpiperidin-4-yl)oxy]phenyl}-N-methyl-1H-pyrrole-3-carboxamide] belongs 21 nM.
For `C[C@@H]1CCCN1CCCOc1ccc(-n2ccc(C(=O)N3CCCC3)c2)cc1` [Compound No. 16, [1-(4-{3-[(2R)-2-methylpyrrolidin-1-yl]propoxy}phenyl)-1H-pyrrol-3-yl](pyrrolidin-1-yl)methanone], the IC50 at H3 receptor was 1.5 nM. Further, in data set [2], the efflux ratio at 10 μM is 3.1.
At H3 receptor, `CC(C)(C)N1CCC(Oc2ccc(-n3ccc(C(=O)N4CCCC4)c3)cc2)CC1` [Compound No. 19, (1-{4-[(1-tert-butylpiperidin-4-yl)oxy]phenyl}-1H-pyrrol-3-yl)(pyrrolidin-1-yl)methanone] registered an IC50 of 1.7 nM.
In turn, `COC(=O)c1ccn(-c2ccc(OC3CCN(C4CCC4)CC3)cc2)c1` [Compound No. 1, methyl 1-{4-[(1-cyclobutylpiperidin-4-yl)oxy]phenyl}-1H-pyrrole-3-carboxylate] gave an IC50 at H3 receptor of 12 nM.
`CC(C)(C)NC(=O)c1ccn(-c2ccc(OC3CCN(C4CCC4)CC3)cc2)c1` [compound 12, N-tert-butyl-1-{4-[(1-cyclobutylpiperidin-4-yl)oxy]phenyl}-1H-pyrrole-3-carboxamide]: the IC50 on H3 receptor turned out to be 5.2 nM.
For the molecule “(1-{4-[(1-cyclobutylpiperidin-4-yl)oxy]phenyl}-1H-pyrrol-3-yl)(piperidin-1-yl)methanol [compound 5]”, at H3 receptor, the IC50 is 3.2 nM.
In the case of `CNC(=O)c1ccn(-c2ccc(OC3CCN(C4CCC4)CC3)cc2)c1` [compound 7, 1-{4-[(1-cyclobutylpiperidin-4-yl)oxy]phenyl}-N-methyl-1H-pyrrole-3-carboxamide], the values for the concentration for half-maximal inhibition (IC50) on H3 receptor and at histamine H3 receptor were 5.9 nM and at most 100 nM, respectively. The concentration at 1 h in data set [1] is 408 ng/g and 50.5 ng/mL. Further, the Kp at 1 h in data set [1] (brain/plasma movement ratio) was 2.2; in data set [1] (setting [3]), 0.3. In data set [2], the efflux ratio at 10 μM turned out to be 1.
`CC(C)N1CCC(Oc2ccc(-n3ccc(C(=O)N4CCCC4)c3)cc2)CC1` [Compound No. 17, (1-{4-[(1-isopropylpiperidin-4-yl)oxy]phenyl}-1H-pyrrol-3-yl)(pyrrolidin-1-yl)methanone] had an IC50 on H3 receptor of 1.1 nM.
In turn, “(1-{4-[(1-cyclobutylpiperidin-4-yl)oxy]phenyl}-1H-pyrrol-3-yl)(pyrrolidin-1-yl)methanol [compound 4]” came in with an IC50 at H3 receptor of 1.1 nM. Moreover, in data set [1] (setting [4]), the brain/plasma movement ratio is listed as 2.9 and the intracerebral concentration is recorded as 7.06 ng/g. Besides, the Efflux ratio in data set [2] (LLC-GA5-COL300 cells on transwell, 10 μM) is 1.3.
